The values below come from patent publication US9932381B2, “Exendin-4 derivatives as selective glucagon receptor agonists” (priority 2014, dated 2018).

Each structure is given as a SMILES string. pEC50: −log10 of the molar value. Non-standard residues stand in square brackets, D forms with d. Residues, ends and D or L forms follow the SMILES beside them. Ala(4-thiazolyl) = N[C@@H](Cc1cscn1)C(=O)O; 1Nal = N[C@@H](Cc1cccc2ccccc12)C(=O)O; Nle = CCCC[C@H](N)C(=O)O

The target of test [1] is T1, human GLP-1 receptor (hGLP-1 R) (Homo sapiens, UniProt P43220).
T1 construct: expressed in transfected cells; host or cells: HEK-293
T1 sequence (P43220 24-463): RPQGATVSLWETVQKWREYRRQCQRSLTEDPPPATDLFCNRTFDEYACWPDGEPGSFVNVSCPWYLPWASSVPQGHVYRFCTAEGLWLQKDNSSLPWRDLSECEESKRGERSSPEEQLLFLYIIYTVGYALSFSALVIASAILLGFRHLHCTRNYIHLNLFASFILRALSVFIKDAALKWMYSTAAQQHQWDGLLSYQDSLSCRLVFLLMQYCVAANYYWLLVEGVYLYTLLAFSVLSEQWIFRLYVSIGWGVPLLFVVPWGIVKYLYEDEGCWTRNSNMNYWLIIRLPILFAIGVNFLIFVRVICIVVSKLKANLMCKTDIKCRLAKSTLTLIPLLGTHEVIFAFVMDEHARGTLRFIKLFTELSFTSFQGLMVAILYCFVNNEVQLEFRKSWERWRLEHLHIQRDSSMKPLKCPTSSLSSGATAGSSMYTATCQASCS
The test can be described thus: cAMP response (HTRF) of HEK-293 cells stably expressing human GLP-1 receptor. In kind it is cell-based. The note with it: Table 4. The protocol: (§1) cAMP content of cells was determined using a kit from Cisbio Corp. (cat. no. 62AM4PEC) based on HTRF (Homogenous Time Resolved Fluorescence). For preparation, cells were split into T175 culture flasks and grown overnight to near confluency in medium (DMEM/10% FBS). Medium was then removed and cells washed with PBS lacking calcium and magnesium, followed by proteinase treatment with accutase (Sigma-Aldrich cat. no. A6964). Detached cells were washed and resuspended in assay buffer (1×HBSS; 20 mM HEPES, 0.1% BSA, 2 mM IBMX) and cellular density determined. They were then diluted to 400000 cells/ml and 25 μl-aliquots dispensed into the wells of 96-well plates. For measurement, 25 μl of test compound in assay buffer was added to the wells, followed by incubation for 30 minutes at room temperature. After addition of HTRF reagents diluted in lysis buffer (kit components), the plates were incubated for 1 hr, followed by measurement of the fluorescence ratio at 665/620 nm. In vitro potency of agonists was quantified by determining the concentrations that caused 50% activation of maximal response (EC50).

For test [2], the target named is T2, human glucagon receptor (hGLUC R) (Homo sapiens, UniProt P47871).
T2 construct: expressed in transfected cells; host or cells: HEK-293
T2 sequence (P47871 26-477): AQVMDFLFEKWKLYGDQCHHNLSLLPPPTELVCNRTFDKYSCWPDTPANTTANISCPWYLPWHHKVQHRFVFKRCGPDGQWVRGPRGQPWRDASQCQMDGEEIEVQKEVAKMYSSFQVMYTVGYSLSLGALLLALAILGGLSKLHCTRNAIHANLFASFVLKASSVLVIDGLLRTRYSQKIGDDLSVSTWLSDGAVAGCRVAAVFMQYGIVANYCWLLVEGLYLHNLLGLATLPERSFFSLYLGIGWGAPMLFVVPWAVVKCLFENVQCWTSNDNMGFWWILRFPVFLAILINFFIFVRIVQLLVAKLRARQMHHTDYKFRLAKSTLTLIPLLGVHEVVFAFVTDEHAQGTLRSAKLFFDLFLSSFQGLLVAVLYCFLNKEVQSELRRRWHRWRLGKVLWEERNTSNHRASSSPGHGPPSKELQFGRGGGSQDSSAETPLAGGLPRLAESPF
Description: cAMP response (HTRF) of HEK-293 cells stably expressing human glucagon receptor. In kind it is cell-based. Particulars: Table 4; read-out: EC50 hGLUC R. On the procedure: as §1, with “temperature.” for “temperature. After addition of HTRF reagents diluted in lysis buffer (kit components), the plates were incubated for 1 hr, followed by measurement of the fluorescence ratio at 665/620 nm. In vitro potency of agonists was quantified by determining the concentrations that caused 50% activation of maximal response (EC50).”
A general note: TR-FRET usually uses a lanthanide donor and a delayed reading to cut background.

One may read the pEC50 as −log10 of the EC50, conventionally taken in molar units. On to `CC[C@H](C)[C@H](NC(=O)[C@H](Cc1ccccc1)NC(=O)[C@H](CCC(=O)O)NC(=O)[C@H](CCC(N)=O)NC(=O)[C@H](C)NC(=O)[C@H](CCCNC(=N)N)NC(=O)[C@H](CCCNC(=N)N)NC(=O)[C@H](CO)NC(=O)[C@H](CCC(=O)O)NC(=O)[C@H](CC(C)C)NC(=O)[C@H](CCC(N)=O)NC(=O)[C@H](CCCCN)NC(=O)[C@H](CO)NC(=O)[C@H](CC(C)C)NC(=O)[C@H](CC(=O)O)NC(=O)[C@H](CO)NC(=O)[C@@H](NC(=O)[C@H](Cc1ccccc1)NC(=O)[C@@H](NC(=O)CNC(=O)[C@H](CCC(N)=O)NC(=O)[C@H](CO)NC(=O)[C@@H](N)Cc1cscn1)[C@@H](C)O)[C@@H](C)O)C(=O)N[C@@H](CCC(=O)O)C(=O)N[C@@H](Cc1c[nH]c2ccccc12)C(=O)N[C@@H](CC(C)C)C(=O)N[C@@H](CC(C)C)C(=O)N[C@@H](C)C(=O)N[C@H](C(=O)NCC(=O)N1CCC[C@H]1C(=O)N[C@@H](CCC(=O)O)C(=O)N[C@@H](CO)C(=O)NCC(=O)N[C@@H](C)C(=O)N1CCC[C@H]1C(=O)N1CCC[C@H]1C(=O)N1CCC[C@H]1C(=O)N[C@@H](CO)C(=O)O)[C@@H](C)O` [SEQ ID NO 12, Tza-SQGTFTSDLSKQLESRRAQEFIEWLLATGPESGAPPPS-OH] (H-[Ala(4-thiazolyl)]SQGTFTSDLSKQLESRRAQEFIEWLLATGPESGAPPPS-OH), for which the figures for the pEC50 in test [1] and in test [2] were 7.70 and 12.00, respectively.
For `CC[C@H](C)[C@H](NC(=O)[C@H](Cc1ccccc1)NC(=O)[C@H](CCC(=O)O)NC(=O)[C@H](CCC(N)=O)NC(=O)[C@H](C)NC(=O)[C@H](CCCNC(=N)N)NC(=O)[C@H](CCCNC(=N)N)NC(=O)[C@H](CO)NC(=O)[C@H](CCC(=O)O)NC(=O)[C@H](CC(C)C)NC(=O)[C@H](CCC(N)=O)NC(=O)[C@H](CCCCN)NC(=O)[C@H](CO)NC(=O)[C@@H](NC(=O)[C@H](CC(=O)O)NC(=O)[C@H](CO)NC(=O)[C@@H](NC(=O)[C@H](Cc1ccccc1)NC(=O)[C@@H](NC(=O)CNC(=O)[C@H](CCC(N)=O)NC(=O)[C@H](CO)NC(=O)[C@@H](N)Cc1cscn1)[C@@H](C)O)[C@@H](C)O)[C@@H](C)CC)C(=O)N[C@@H](CCC(=O)O)C(=O)N[C@@H](Cc1c[nH]c2ccccc12)C(=O)N[C@@H](CC(C)C)C(=O)N[C@@H](CC(C)C)C(=O)N[C@@H](C)C(=O)N[C@H](C(=O)NCC(=O)N1CCC[C@H]1C(=O)N[C@@H](CCC(=O)O)C(=O)N[C@@H](CO)C(=O)NCC(=O)N[C@@H](C)C(=O)N1CCC[C@H]1C(=O)N1CCC[C@H]1C(=O)N1CCC[C@H]1C(=O)N[C@@H](CO)C(=O)O)[C@@H](C)O` [SEQ ID NO 8, Tza-SQGTFTSDISKQLESRRAQEFIEWLLATGPESGAPPPS-OH] the same measures were 8.24 and 11.66.
`CCCC[C@H](NC(=O)[C@H](CCC(N)=O)NC(=O)[C@H](CCCCN)NC(=O)[C@H](CO)NC(=O)[C@H](CC(C)C)NC(=O)[C@H](CC(=O)O)NC(=O)[C@H](CO)NC(=O)[C@@H](NC(=O)[C@H](Cc1ccccc1)NC(=O)[C@@H](NC(=O)CNC(=O)[C@H](CCC(N)=O)NC(=O)[C@H](CO)NC(=O)[C@@H](N)Cc1cscn1)[C@@H](C)O)[C@@H](C)O)C(=O)N[C@@H](CCC(=O)O)C(=O)N[C@@H](CO)C(=O)N[C@@H](CCCNC(=N)N)C(=O)N[C@@H](CCCNC(=N)N)C(=O)N[C@@H](C)C(=O)N[C@@H](CCC(N)=O)C(=O)N[C@@H](CCC(=O)O)C(=O)N[C@@H](Cc1ccccc1)C(=O)N[C@H](C(=O)N[C@@H](CCC(=O)O)C(=O)N[C@@H](Cc1c[nH]c2ccccc12)C(=O)N[C@@H](CC(C)C)C(=O)N[C@@H](CC(C)C)C(=O)N[C@@H](C)C(=O)N[C@H](C(=O)NCC(=O)N1CCC[C@H]1C(=O)N[C@@H](CCC(=O)O)C(=O)N[C@@H](CO)C(=O)NCC(=O)N[C@@H](C)C(=O)N1CCC[C@H]1C(=O)N1CCC[C@H]1C(=O)N1CCC[C@H]1C(=O)N[C@@H](CO)C(=O)O)[C@@H](C)O)[C@@H](C)CC` [SEQ ID NO 16, Tza-S-Q-G-T-F-T-S-D-L-S-K-Q-Nle-ESRRAQEFIEWLLATGPESGAPPPS-OH] (H-[Ala(4-thiazolyl)]SQGTFTSDLSKQ[Nle]ESRRAQEFIEWLLATGPESGAPPPS-OH; N-terminus assumed) had a pEC50 in test [1] of 7.71.
Same read-out and setting: under `CC[C@H](C)[C@H](NC(=O)[C@H](Cc1ccccc1)NC(=O)[C@H](CCC(=O)O)NC(=O)[C@H](CCC(N)=O)NC(=O)[C@H](C)NC(=O)[C@H](CCCNC(=N)N)NC(=O)[C@H](CCCNC(=N)N)NC(=O)[C@H](CO)NC(=O)[C@H](CCC(=O)O)NC(=O)[C@H](CC(C)C)NC(=O)[C@H](CCC(N)=O)NC(=O)[C@H](CCCCN)NC(=O)[C@H](CO)NC(=O)[C@H](Cc1cccc2ccccc12)NC(=O)[C@H](CC(=O)O)NC(=O)[C@H](CO)NC(=O)[C@@H](NC(=O)[C@H](Cc1ccccc1)NC(=O)[C@@H](NC(=O)CNC(=O)[C@H](CCC(N)=O)NC(=O)[C@H](CO)NC(=O)[C@@H](N)Cc1cscn1)[C@@H](C)O)[C@@H](C)O)C(=O)N[C@@H](CCC(=O)O)C(=O)N[C@@H](Cc1c[nH]c2ccccc12)C(=O)N[C@@H](CC(C)C)C(=O)N[C@@H](CC(C)C)C(=O)N[C@@H](C)C(=O)N[C@H](C(=O)NCC(=O)N1CCC[C@H]1C(=O)N[C@@H](CCC(=O)O)C(=O)N[C@@H](CO)C(=O)NCC(=O)N[C@@H](C)C(=O)N1CCC[C@H]1C(=O)N1CCC[C@H]1C(=O)N1CCC[C@H]1C(=O)N[C@@H](CO)C(=O)O)[C@@H](C)O` [SEQ ID NO 11, Tza-S-Q-G-T-F-T-S-D-1Nal-SKQLESRRAQEFIEWLLATGPESGAPPPS-OH] (H-[Ala(4-thiazolyl)]SQGTFTSD[1Nal]SKQLESRRAQEFIEWLLATGPESGAPPPS-OH; N-terminus assumed) stands 7.93; under `CC[C@H](C)[C@H](NC(=O)[C@H](Cc1ccccc1)NC(=O)[C@H](CCC(=O)O)NC(=O)[C@H](CCC(N)=O)NC(=O)[C@H](C)NC(=O)[C@H](CCCNC(=N)N)NC(=O)[C@H](CCCNC(=N)N)NC(=O)[C@H](CO)NC(=O)[C@H](CCC(=O)O)NC(=O)[C@H](CC(C)C)NC(=O)[C@H](CCC(N)=O)NC(=O)[C@H](CCCCN)NC(=O)[C@H](CO)NC(=O)[C@H](CC(C)C)NC(=O)[C@H](CC(=O)O)NC(=O)[C@H](CO)NC(=O)[C@@H](NC(=O)[C@H](Cc1ccccc1)NC(=O)[C@@H](NC(=O)CNC(=O)[C@H](CCC(N)=O)NC(=O)[C@H](CO)NC(=O)[C@@H](N)Cc1cscn1)[C@@H](C)O)[C@@H](C)O)C(=O)N[C@@H](CCC(=O)O)C(=O)N[C@@H](Cc1c[nH]c2ccccc12)C(=O)N[C@@H](CC(C)C)C(=O)N[C@@H](CC(C)C)C(=O)N[C@@H](C)C(=O)NCC(=O)NCC(=O)N1CCC[C@H]1C(=O)N[C@@H](CCC(=O)O)C(=O)N[C@@H](CO)C(=O)NCC(=O)N[C@@H](C)C(=O)N1CCC[C@H]1C(=O)N1CCC[C@H]1C(=O)N1CCC[C@H]1C(=O)N[C@@H](CO)C(=O)O` [SEQ ID NO 4, Tza-SQGTFTSDLSKQLESRRAQEFIEWLLAGGPESGAPPPS-OH] (H-[Ala(4-thiazolyl)]SQGTFTSDLSKQLESRRAQEFIEWLLAGGPESGAPPPS-OH; N-terminus assumed), 8.48.
